Source: ChEMBL document CHEMBL3045411, “Efficacy and effects on yield of different fungicides for control of wet bubble disease of mushroom caused by the mycoparasite Mycogone perniciosa” (2010)
Converted amounts (≈) assume the structure as drawn.

Tested on: Mycogone perniciosa
Experiment: Antimicrobial activity against Mycogone perniciosa isolates assessed as inhibition of mycelial growth after 12 days
Format: functional
Settings: 288 h, read-out: ED50 (the source's name)

| Compound | EC50 [mg/L] |
| --- | --- |
| COC(=O)Nc1nc2ccccc2[nH]1 [CARBENDAZIM] | 0.065 (≈ 0.34 µM) |
| CC(C)NC(=O)N1CC(=O)N(c2cc(Cl)cc(Cl)c2)C1=O [IPRODIONE] | 2.69 (≈ 8.14 µM) |
| c1ccc2[nH]c(-c3cscn3)nc2c1 [THIABENDAZOLE] | 0.225 (≈ 1.12 µM) |
| COC(=O)NC(=S)Nc1ccccc1NC(=S)NC(=O)OC [THIOPHANATE METHYL] | 0.773 (≈ 2.26 µM) |
